# Laboratory results as given in ChEMBL document CHEMBL5108059, “Discovery of 2-Methyl-2-(4-(2-methyl-8-(1H-pyrrolo[2,3-b]pyridin-6-yl)-1H-naphtho[1,2-d]imidazol-1-yl)phenyl)propanenitrile as a Novel PI3K/mTOR Inhibitor with Enhanced Antitumor Efficacy In Vitro and In Vivo” (J Med Chem, 2022).
# Tests used:
# HT-29 = experiment: Antiproliferative activity against human HT-29 cells with PIK3CA mutation assessed as inhibition of cell growth incubated for 48 to 72 hrs by MTT assay; assay type: functional, cell-based
# HeLa [1] = experiment: Antiproliferative activity against human HeLa cells assessed as inhibition of cell growth incubated for 48 to 72 hrs by MTT assay; assay type: functional, cell-based
# [2] = molecular target: T1, Phosphatidylinositol 4,5-bisphosphate 3-kinase catalytic subunit delta isoform (Homo sapiens, UniProt O00329); experiment: Inhibition of PI3Kdelta (unknown origin) using PIP2 as substrate incubated for 2 hrs in presence of ATP by Kinase Glo luminescence assay
# T1 sequence (O00329 whole entry): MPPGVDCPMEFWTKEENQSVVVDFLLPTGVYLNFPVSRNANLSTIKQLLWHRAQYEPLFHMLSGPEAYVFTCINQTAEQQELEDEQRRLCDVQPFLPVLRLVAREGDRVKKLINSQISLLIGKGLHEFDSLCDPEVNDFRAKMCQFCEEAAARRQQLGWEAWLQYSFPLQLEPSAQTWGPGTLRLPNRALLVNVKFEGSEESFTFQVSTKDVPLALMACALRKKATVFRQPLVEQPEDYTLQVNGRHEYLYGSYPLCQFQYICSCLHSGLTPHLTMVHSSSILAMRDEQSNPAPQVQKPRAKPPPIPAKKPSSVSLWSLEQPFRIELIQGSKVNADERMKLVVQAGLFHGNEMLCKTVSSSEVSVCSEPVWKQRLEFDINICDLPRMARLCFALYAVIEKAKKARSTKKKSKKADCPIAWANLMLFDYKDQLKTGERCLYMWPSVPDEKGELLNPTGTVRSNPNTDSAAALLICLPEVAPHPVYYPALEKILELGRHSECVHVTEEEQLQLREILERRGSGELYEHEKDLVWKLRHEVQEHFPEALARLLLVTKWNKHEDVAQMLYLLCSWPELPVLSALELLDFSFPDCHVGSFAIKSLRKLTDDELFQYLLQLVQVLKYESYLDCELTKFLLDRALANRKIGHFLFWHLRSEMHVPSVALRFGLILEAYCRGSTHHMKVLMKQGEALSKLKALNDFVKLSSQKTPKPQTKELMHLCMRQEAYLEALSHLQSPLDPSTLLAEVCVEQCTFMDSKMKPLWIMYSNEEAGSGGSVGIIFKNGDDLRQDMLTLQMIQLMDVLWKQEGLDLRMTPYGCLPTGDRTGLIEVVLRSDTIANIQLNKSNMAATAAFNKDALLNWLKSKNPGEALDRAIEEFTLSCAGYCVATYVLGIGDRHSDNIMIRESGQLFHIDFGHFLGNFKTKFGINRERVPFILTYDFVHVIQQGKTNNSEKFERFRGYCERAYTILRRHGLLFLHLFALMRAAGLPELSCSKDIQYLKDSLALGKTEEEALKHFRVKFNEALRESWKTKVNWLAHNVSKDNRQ
# HCT-15 = experiment: Antiproliferative activity against human HCT-15 cells with PIK3CA mutation assessed as inhibition of cell growth incubated for 48 to 72 hrs by MTT assay; assay type: functional, cell-based
# [3] = molecular target: Phosphatidylinositol 4,5-bisphosphate 3-kinase catalytic subunit alpha isoform (Homo sapiens, UniProt P42336); experiment: Inhibition of PI3Kalpha (unknown origin) using PIP2 as substrate incubated for 1 hr in presence of ATP by Kinase Glo luminescence assay
# [4] = molecular target: Serine/threonine-protein kinase mTOR (Homo sapiens, UniProt P42345); experiment: Inhibition of N-terminal FLAG-tagged recombinant human mTOR (1362 to end residue) using ULight-4EBP1 peptide as substrate incubated for 30 mins in presence of ATP by Lance ultra assay
# NCI-H446 = experiment: Antiproliferative activity against PTEN-null human NCI-H446 cells assessed as inhibition of cell growth incubated for 48 to 72 hrs by MTT assay; assay type: functional, cell-based
# NCI-H3122 = experiment: Antiproliferative activity against human NCI-H3122 cells assessed as inhibition of cell growth incubated for 48 to 72 hrs by MTT assay; assay type: functional, cell-based
# SW-620 [5] = experiment: Antiproliferative activity against human SW620 cells assessed as inhibition of cell growth incubated for 48 to 72 hrs by MTT assay; assay type: functional, cell-based
# HeLa [6] = experiment: Antitumor activity against human HeLa cells xenografted in BALB/c nude mouse assessed as tumor growth inhibition at 30 mg/kg, IG administered daily for 30 days and measured every 2 days relative to control; assay type: functional; details: po, 720 h, time 30 day, read-out: TGI
# SW-620 [7] = experiment: Antitumor activity against human SW620 cells xenografted in BALB/c nude mouse assessed as tumor growth inhibition at 30 mg/kg, IG administered daily for 30 days and measured every 2 days relative to control; assay type: functional; details: SW-620, po, 720 h, time 30 day, read-out: TGI
# Chain of Phosphatidylinositol 4,5-bisphosphate 3-kinase catalytic subunit alpha isoform (P42336 whole entry, canonical isoform): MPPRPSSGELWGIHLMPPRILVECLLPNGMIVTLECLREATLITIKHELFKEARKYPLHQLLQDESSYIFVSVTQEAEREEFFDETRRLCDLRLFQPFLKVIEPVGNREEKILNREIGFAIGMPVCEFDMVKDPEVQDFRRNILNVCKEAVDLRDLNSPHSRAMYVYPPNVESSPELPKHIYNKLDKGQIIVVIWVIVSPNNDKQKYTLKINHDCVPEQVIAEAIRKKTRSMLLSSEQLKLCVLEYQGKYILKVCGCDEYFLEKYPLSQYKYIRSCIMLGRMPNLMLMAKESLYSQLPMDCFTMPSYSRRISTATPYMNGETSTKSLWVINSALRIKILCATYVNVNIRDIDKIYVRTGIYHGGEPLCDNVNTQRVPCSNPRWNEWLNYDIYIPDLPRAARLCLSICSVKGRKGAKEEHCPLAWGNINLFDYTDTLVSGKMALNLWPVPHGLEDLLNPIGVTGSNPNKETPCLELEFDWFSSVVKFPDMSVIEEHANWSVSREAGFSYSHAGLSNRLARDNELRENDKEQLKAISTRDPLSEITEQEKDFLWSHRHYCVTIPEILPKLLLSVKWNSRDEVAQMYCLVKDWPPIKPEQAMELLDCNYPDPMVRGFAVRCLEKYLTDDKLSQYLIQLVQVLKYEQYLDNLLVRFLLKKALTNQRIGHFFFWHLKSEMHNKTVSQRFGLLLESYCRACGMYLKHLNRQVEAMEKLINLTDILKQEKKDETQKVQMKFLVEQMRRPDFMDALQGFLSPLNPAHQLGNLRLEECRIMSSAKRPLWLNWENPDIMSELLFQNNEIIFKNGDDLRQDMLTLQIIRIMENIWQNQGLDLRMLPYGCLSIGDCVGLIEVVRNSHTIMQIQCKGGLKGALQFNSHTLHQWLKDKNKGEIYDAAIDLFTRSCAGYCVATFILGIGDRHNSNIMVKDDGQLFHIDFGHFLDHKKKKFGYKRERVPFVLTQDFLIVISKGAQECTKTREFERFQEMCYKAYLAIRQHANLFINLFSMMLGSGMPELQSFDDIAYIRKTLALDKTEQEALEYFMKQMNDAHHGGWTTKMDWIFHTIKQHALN
SMILES,IC50 (HT-29),IC50 (HeLa [1]),IC50 [2],IC50 (HCT-15),IC50 [3],IC50 [4],IC50 (NCI-H446),IC50 (NCI-H3122),IC50 (SW-620 [5]),inhibition in vivo at 30 mg/kg (HeLa [6]),inhibition in vivo at 30 mg/kg (SW-620 [7])
Cc1nc2cnc3ccc(-c4ccc(O)cc4)cc3c2n1-c1ccc(F)cc1,3360 nM,2160 nM,132 nM,2750 nM,89.2 nM,244 nM,7820 nM,3730 nM,3620 nM,,
Cc1nc2cnc3ccc(-c4cnc5[nH]ccc5c4)cc3c2n1-c1ccc(C(F)(F)F)nc1,1530 nM,3710 nM,93.1 nM,2850 nM,104 nM,159 nM,3210 nM,2360 nM,1830 nM,,
CNC(=O)c1ccc(-c2ccc3ncc4nc(C)n(-c5ccc(F)cc5)c4c3c2)cc1,9890 nM,> 20000 nM,133 nM,12700 nM,195 nM,157 nM,> 20000 nM,> 20000 nM,> 20000 nM,,
Cc1nc2cnc3ccc(-c4cnc5[nH]ccc5c4)cc3c2n1[C@H](C)c1ccc(F)cc1,1380 nM,3940 nM,184 nM,1170 nM,151 nM,90.2 nM,3970 nM,2050 nM,1740 nM,,
Cc1nc2cnc3ccc(-c4cnc5[nH]ccc5c4)cc3c2n1[C@@H](C)c1ccccc1,1610 nM,1620 nM,104 nM,1520 nM,54.1 nM,78.1 nM,3410 nM,2150 nM,1050 nM,,

# The next molecules have a lower IC50 (HT-29) than those just listed; values first:
IC50 (HT-29),IC50 (HeLa [1]),IC50 [2],IC50 (HCT-15),IC50 [3],IC50 [4],IC50 (NCI-H446),IC50 (NCI-H3122),IC50 (SW-620 [5]),SMILES,inhibition in vivo at 30 mg/kg (HeLa [6]),inhibition in vivo at 30 mg/kg (SW-620 [7])
310 nM,190 nM,21.7 nM,290 nM,12.5 nM,29.1 nM,1080 nM,370 nM,230 nM,Cc1nc2cnc3ccc(-c4cnc5[nH]ccc5c4)cc3c2n1-c1ccc(C(C)(C)C#N)cc1,,
1010 nM,1090 nM,,910 nM,,,870 nM,960 nM,870 nM,Cn1c(=O)n(-c2ccc(C(C)(C)C#N)cc2)c2c3cc(-c4cnc5ccccc5c4)ccc3ncc21 [DACTOLISIB],53.3%,51.7%
910 nM,510 nM,28.6 nM,830 nM,19.3 nM,45.2 nM,1650 nM,670 nM,1370 nM,Cc1nc2cnc3cc(F)c(-c4cnc5[nH]ccc5c4)cc3c2n1-c1ccc(C(C)(C)C#N)cc1,,
1250 nM,1080 nM,66.3 nM,970 nM,47.1 nM,109 nM,1390 nM,1030 nM,1160 nM,Cc1nc2cnc3ccc(-c4cnc5[nH]ccc5c4)cc3c2n1-c1ccc(C(F)(F)F)cc1,,
